Patent publication US11149031B2, “Substituted N-(3-fluoropropyl)-pyrrolidine compounds, processes for their preparation and therapeutic uses thereof” (SANOFI, priority 2016, dated 2021)

Legend:
[1] = biological target: His6-ERα298-554 WT (ERα ligand-binding domain) (Homo sapiens (Human), UniProt P03372); test: Test A: biochemical antagonist activity, LanthaScreen TR-FRET ERα coactivator assay, WT; details: protocol with 3 nM estradiol; read-out: Antagonism WT IC50
Procedure, shortened: (§1)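 IC50 values come from a 4-parameter logistic fit of the 520:495 nm TR-FRET ratio after overnight room-temperature incubation. The mix held 0.5 nM ERα 298–554 LBD, Tb-labelled anti-His6 antibody, 250 nM PGC1a peptide and 3 nM or 10 nM estradiol, pH 7.4 phosphate buffer with DTT.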

[2] = biological target: His6-ERα298-554 D538G mutant (ERα ligand-binding domain) (Homo sapiens (Human), UniProt P03372, D538G); test: Test A: biochemical antagonist activity, LanthaScreen TR-FRET ERα coactivator assay, D538G mutant; details: protocol with 3 nM estradiol; read-out: Antagonism D538G IC50
Chain of His6-ERα298-554 D538G mutant (ERα ligand-binding domain) (P03372 298-554 D538G): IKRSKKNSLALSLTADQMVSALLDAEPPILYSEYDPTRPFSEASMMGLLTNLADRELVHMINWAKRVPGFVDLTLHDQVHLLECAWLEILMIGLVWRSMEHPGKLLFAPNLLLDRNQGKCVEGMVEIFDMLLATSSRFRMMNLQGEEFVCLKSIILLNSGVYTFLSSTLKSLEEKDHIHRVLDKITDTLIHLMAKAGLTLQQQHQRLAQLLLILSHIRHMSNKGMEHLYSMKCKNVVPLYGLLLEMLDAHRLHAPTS
Procedure, shortened: as §1

[3] = biological target: His6-ERα298-554 Y537S mutant (ERα ligand-binding domain) (Homo sapiens (Human), UniProt P03372, Y537S); test: Test A: biochemical antagonist activity, LanthaScreen TR-FRET ERα coactivator assay, Y537S mutant; details: protocol with 3 nM estradiol; read-out: Antagonism Y537S IC50
Chain of His6-ERα298-554 Y537S mutant (ERα ligand-binding domain) (P03372 298-554 Y537S): as the sequence (P03372 298-554 D538G) above, with Y240S, G241D counted along it
Procedure, shortened: as §1

[4] = biological target: ERα in MCF7 cells (Homo sapiens (Human), UniProt P03372); test: Test C: estrogen receptor degradation activity, ERα in cell western assay in MCF7 cells; format: cell-based; details: for DC50: 4 hours post compound addition, ERα in cell western, read-out: Degradation IC50; for % Degradation at 3 μM: 4 hours, relative to fulvestrant
Chain of ERα in MCF7 cells (P03372 whole entry): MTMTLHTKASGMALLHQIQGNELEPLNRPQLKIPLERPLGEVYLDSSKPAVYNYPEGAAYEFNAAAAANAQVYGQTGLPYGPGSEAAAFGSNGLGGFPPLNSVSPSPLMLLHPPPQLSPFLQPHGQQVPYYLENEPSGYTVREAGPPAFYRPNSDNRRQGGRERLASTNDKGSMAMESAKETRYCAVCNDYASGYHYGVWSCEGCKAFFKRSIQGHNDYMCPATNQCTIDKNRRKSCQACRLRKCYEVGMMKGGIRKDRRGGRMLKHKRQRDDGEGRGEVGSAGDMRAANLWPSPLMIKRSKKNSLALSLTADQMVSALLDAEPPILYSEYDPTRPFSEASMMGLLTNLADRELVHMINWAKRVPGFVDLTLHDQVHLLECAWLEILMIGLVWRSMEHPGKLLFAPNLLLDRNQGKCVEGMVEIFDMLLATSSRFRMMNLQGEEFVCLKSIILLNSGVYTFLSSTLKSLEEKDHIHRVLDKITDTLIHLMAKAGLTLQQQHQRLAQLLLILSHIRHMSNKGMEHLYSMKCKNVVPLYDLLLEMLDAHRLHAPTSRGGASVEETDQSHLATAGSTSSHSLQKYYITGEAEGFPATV
Procedure, shortened: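 ERα level is read as integrated green fluorescence, with DNA taken from red Syto-64 signal, after MCF7 cells are exposed to compound for 4 hours. Cells grow in hormone-depleted medium (5% charcoal-dextran stripped FBS, no phenol red); fulvestrant at 0.1 μM is the positive control.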

Chain of His6-ERα298-554 WT (ERα ligand-binding domain) (P03372 298-554): as the sequence (P03372 298-554 D538G) above, with G241D counted along it

Oc1ccc2c(c1)C(c1ccc(O[C@H]3CCN(CCCF)C3)cc1)=C(c1cccc(F)c1Cl)CCS2 [Example 170, 4-(2-chloro-3-fluoro-phenyl)-5-[4-[(3S)-1-(3-fluoropropyl)pyrrolidin-3-yl]oxyphenyl]-2,3-dihydro-1-benzothiepin-7-ol]
IC50 [1]: 18 nM
IC50 [2]: 129 nM
IC50 [3]: 82 nM
DC50 [4]: 1 nM
% Degradation at 3 μM [4]: 81%

Cc1ccc(C2=C(c3ccc(O[C@H]4CCN(CCCF)C4)cc3)c3cc(O)ccc3SCC2)c(F)c1 [Example 171, 4-(2-fluoro-4-methyl-phenyl)-5-[4-[(3S)-1-(3-fluoropropyl)pyrrolidin-3-yl]oxyphenyl]-2,3-dihydro-1-benzothiepin-7-ol]
IC50 [1]: 24 nM
IC50 [2]: 140 nM
IC50 [3]: 87 nM
DC50 [4]: 0.2 nM
% Degradation at 3 μM [4]: 85%

Cc1c(Cl)cccc1C1=C(c2ccc(O[C@H]3CCN(CCCF)C3)cc2)c2cc(O)ccc2SCC1 [Example 173, 4-(3-chloro-2-methyl-phenyl)-5-[4-[(3S)-1-(3-fluoropropyl)pyrrolidin-3-yl]oxyphenyl]-2,3-dihydro-1-benzothiepin-7-ol]
IC50 [1]: 21 nM
IC50 [2]: 145 nM
IC50 [3]: 87 nM
DC50 [4]: 4 nM
% Degradation at 3 μM [4]: 82%

Oc1ccc2c(c1)C(c1ccc(O[C@H]3CCN(CCCF)C3)cc1)=C(c1ccc(F)c(Cl)c1)CCS2 [Example 174, 4-(3-chloro-4-fluoro-phenyl)-5-[4-[(3S)-1-(3-fluoropropyl)pyrrolidin-3-yl]oxyphenyl]-2,3-dihydro-1-benzothiepin-7-ol]
IC50 [1]: 53 nM
IC50 [2]: 422 nM
IC50 [3]: 222 nM
DC50 [4]: 4 nM
% Degradation at 3 μM [4]: 81%

Oc1ccc2c(c1)C(c1ccc(O[C@H]3CCN(CCCF)C3)cc1)=C(c1ccc(F)cc1Cl)CCS2 [Example 175, 4-(2-chloro-4-fluoro-phenyl)-5-[4-[(3S)-1-(3-fluoropropyl)pyrrolidin-3-yl]oxyphenyl]-2,3-dihydro-1-benzothiepin-7-ol]
IC50 [1]: 20 nM
IC50 [2]: 116 nM
IC50 [3]: 65 nM
DC50 [4]: 0.3 nM
% Degradation at 3 μM [4]: 83%

Oc1ccc(C2=C(c3ccc(O[C@H]4CCN(CCCF)C4)cc3)c3cc(O)ccc3SCC2)cc1 [Example 177, 5-[4-[(3S)-1-(3-fluoropropyl)pyrrolidin-3-yl]oxyphenyl]-4-(4-hydroxyphenyl)-2,3-dihydro-1-benzothiepin-7-ol]
IC50 [1]: 4 nM
IC50 [2]: 41 nM
IC50 [3]: 29 nM
DC50 [4]: 0.2 nM
% Degradation at 3 μM [4]: 75%

Cc1cc(C2=C(c3ccc(O[C@H]4CCN(CCCF)C4)cc3)c3cc(O)ccc3SCC2)ccc1Cl [Example 179, 4-(4-chloro-3-methyl-phenyl)-5-[4-[(3S)-1-(3-fluoropropyl)pyrrolidin-3-yl]oxyphenyl]-2,3-dihydro-1-benzothiepin-7-ol]
IC50 [1]: 12 nM
IC50 [2]: 114 nM
IC50 [3]: 80 nM
DC50 [4]: 4 nM
% Degradation at 3 μM [4]: 80%

Cc1cc(F)ccc1C1=C(c2ccc(O[C@H]3CCN(CCCF)C3)cc2)c2cc(O)ccc2SCC1 [Example 180, 4-(4-fluoro-2-methyl-phenyl)-5-[4-[(3S)-1-(3-fluoropropyl)pyrrolidin-3-yl]oxyphenyl]-2,3-dihydro-1-benzothiepin-7-ol]
IC50 [1]: 7 nM
IC50 [2]: 36 nM
IC50 [3]: 16 nM
DC50 [4]: 3 nM
% Degradation at 3 μM [4]: 80%

Oc1ccc2c(c1)C(c1ccc(O[C@H]3CCN(CCCF)C3)cc1)=C(c1ccc(Cl)cc1F)CCS2 [Example 181, 4-(4-chloro-2-fluoro-phenyl)-5-[4-[(3S)-1-(3-fluoropropyl)pyrrolidin-3-yl]oxyphenyl]-2,3-dihydro-1-benzothiepin-7-ol]
IC50 [1]: 25 nM
IC50 [2]: 135 nM
IC50 [3]: 54 nM
DC50 [4]: 3 nM
% Degradation at 3 μM [4]: 83%

O=S1(=O)CCC(c2cccc(O)c2)=C(c2ccc(O[C@H]3CCN(CCCF)C3)cc2)c2ccc(O)cc21 [Example 228, 5-[4-[(3S)-1-(3-fluoropropyl)pyrrolidin-3-yl]oxyphenyl]-4-(3-hydroxyphenyl)-1,1-dioxo-2,3-dihydro-benzothiepin-8-ol]
IC50 [1]: 6 nM
IC50 [2]: 73 nM
IC50 [3]: 38 nM
DC50 [4]: 0.2 nM
% Degradation at 3 μM [4]: 87%

O=S1(=O)CCC(c2ccc(F)cc2Cl)=C(c2ccc(O[C@H]3CCN(CCCF)C3)cc2)c2ccc(O)cc21 [Example 229, 4-(2-chloro-4-fluoro-phenyl)-5-[4-[(3S)-1-(3-fluoropropyl)pyrrolidin-3-yl]oxyphenyl]-1,1-dioxo-2,3-dihydro-1λ^6-benzothiepin-8-ol]
IC50 [1]: 12 nM
IC50 [2]: 85 nM
IC50 [3]: 34 nM
DC50 [4]: 0.2 nM
% Degradation at 3 μM [4]: 89%

Cc1ccc(C2=C(c3ccc(O[C@H]4CCN(CCCF)C4)cc3)c3ccc(O)cc3S(=O)(=O)CC2)c(F)c1 [Example 230, 4-(2-fluoro-4-methyl-phenyl)-5-[4-[(3S)-1-(3-fluoropropyl)pyrrolidin-3-yl]oxyphenyl]-1,1-dioxo-2,3-dihydro-1λ^6-benzothiepin-8-ol]
IC50 [1]: 14 nM
IC50 [2]: 99 nM
IC50 [3]: 41 nM
DC50 [4]: 0.8 nM
% Degradation at 3 μM [4]: 93%

O=S1(=O)CCC(c2cccc(F)c2Cl)=C(c2ccc(O[C@H]3CCN(CCCF)C3)cc2)c2ccc(O)cc21 [Example 232, 4-(2-chloro-3-fluoro-phenyl)-5-[4-[(3S)-1-(3-fluoropropyl)pyrrolidin-3-yl]oxyphenyl]-1,1-dioxo-2,3-dihydro-1λ^6-benzothiepin-8-ol]
IC50 [1]: 16 nM
IC50 [2]: 99 nM
IC50 [3]: 78 nM
DC50 [4]: 0.2 nM
% Degradation at 3 μM [4]: 95%

O=S1(=O)CCC(c2ccc(Cl)cc2F)=C(c2ccc(O[C@H]3CCN(CCCF)C3)cc2)c2ccc(O)cc21 [Example 233, 4-(4-chloro-2-fluoro-phenyl)-5-[4-[(3S)-1-(3-fluoropropyl)pyrrolidin-3-yl]oxyphenyl]-1,1-dioxo-2,3-dihydro-1λ^6-benzothiepin-8-ol]
IC50 [1]: 20 nM
IC50 [2]: 128 nM
IC50 [3]: 70 nM
DC50 [4]: 0.2 nM
% Degradation at 3 μM [4]: 94%

Cc1cc(F)ccc1C1=C(c2ccc(O[C@H]3CCN(CCCF)C3)cc2)c2ccc(O)cc2S(=O)(=O)CC1 [Example 234, 4-(4-fluoro-2-methyl-phenyl)-5-[4-[(3S)-1-(3-fluoropropyl)pyrrolidin-3-yl]oxyphenyl]-1,1-dioxo-2,3-dihydro-1λ^6-benzothiepin-8-ol]
IC50 [1]: 9 nM
IC50 [2]: 59 nM
IC50 [3]: 33 nM
DC50 [4]: 0.2 nM
% Degradation at 3 μM [4]: 90%

Cc1c(Cl)cccc1C1=C(c2ccc(O[C@H]3CCN(CCCF)C3)cc2)c2ccc(O)cc2S(=O)(=O)CC1 [Example 235, 4-(3-chloro-2-methyl-phenyl)-5-[4-[(3S)-1-(3-fluoropropyl)pyrrolidin-3-yl]oxyphenyl]-1,1-dioxo-2,3-dihydro-1λ^6-benzothiepin-8-ol]
IC50 [1]: 13 nM
IC50 [2]: 100 nM
IC50 [3]: 83 nM
DC50 [4]: 0.9 nM
% Degradation at 3 μM [4]: 95%

Cc1cc(C2=C(c3ccc(O[C@H]4CCN(CCCF)C4)cc3)c3ccc(O)cc3S(=O)(=O)CC2)ccc1Cl [Example 236, 4-(4-chloro-3-methyl-phenyl)-5-[4-[(3S)-1-(3-fluoropropyl)pyrrolidin-3-yl]oxyphenyl]-1,1-dioxo-2,3-dihydro-1λ^6-benzothiepin-8-ol]
IC50 [1]: 8 nM
IC50 [2]: 54 nM
IC50 [3]: 29 nM
DC50 [4]: 0.3 nM
% Degradation at 3 μM [4]: 91%
